Target: AMPK
Assay: AMPK activation, enzyme-linked immunosorbent assay
Assay type: biochemical
Settings: Table 8, compounds of Table 1
Description: Compounds of Table 1 were assayed for their ability to activate AMPK using an enzyme-linked immunosorbent assay.
Compounds of Table 2 were assayed for their ability to activate AMPK using an enzyme-linked immunosorbent assay.
Compounds of Table 3 were assayed for their ability to activate AMPK using an enzyme-linked immunosorbent assay.
Compounds of Table 4 were assayed for their ability to activate AMPK using an enzyme-linked immunosorbent assay.
Compounds of Table 5 were assayed for their ability to activate AMPK using an enzyme-linked immunosorbent assay.
Compounds of Table 6 were assayed for their ability to activate AMPK using an enzyme-linked immunosorbent assay.
Compounds of Table 7 were assayed for their ability to activate AMPK using an enzyme-linked immunosorbent assay.

SMILES | EC50 [nM]
O=C(NC1CCN(Cc2ccc(F)cc2)CC1)c1cc(OC2CCN(c3ccc(C(F)(F)F)cc3)CC2)ccn1 [Compound 1-29, N-(1-(4-fluorobenzyl)piperidin-4-yl)-4-(1-(4-(trifluoromethyl)phenyl)piperidin-4-yloxy)picolinamide] | 100 to 500
O=C(N[C@H]1CCN(Cc2ccncc2)C1)c1ccc(OC2CCN(c3ccc(C(F)(F)F)cc3)CC2)cn1 [Compound 1-30, (S)-N-(1-(pyridin-4-ylmethyl)pyrrolidin-3-yl)-5-(1-(4-(trifluoromethyl)phenyl)piperidin-4-yloxy)picolinamide] | < 100
O=C(N[C@H]1CCN(Cc2ccc(F)cc2)C1)c1ccc(OC2CCN(c3ccc(C(F)(F)F)cc3)CC2)cn1 [Compound 1-32, (S)-N-(1-(4-fluorobenzyl)pyrrolidin-3-yl)-5-(1-(4-(trifluoromethyl)phenyl)piperidin-4-yloxy) picolinamide] | 100 to 500
O=C(N[C@@H]1CCN(Cc2ccc(F)cc2)C1)c1ccc(OC2CCN(c3ccc(C(F)(F)F)cc3)CC2)cn1 [Compound 1-34, (R)-N-(1-(4-fluorobenzyl)pyrrolidin-3-yl)-5-(1-(4-(trifluoromethyl)phenyl)piperidin-4-yloxy) picolinamide] | 500 to 1000
N#Cc1ccc(CN2CCC(NC(=O)c3ccc(OC4CCN(c5ccc(C(F)(F)F)cc5)CC4)nc3)CC2)cc1 [Compound 1-35, N-(1-(4-cyanobenzyl)piperidin-4-yl)-6-(1-(4-(trifluoromethyl)phenyl)piperidin-4-yloxy) nicotinamide] | 100 to 500
O=C(NC1CCN(CCc2ccccc2)CC1)c1ccc(OC2CCN(c3ccc(C(F)(F)F)cc3)CC2)cn1 [Compound 1-36, N-(1-phenethylpiperidin-4-yl)-5-(1-(4-(trifluoromethyl)phenyl)piperidin-4-yloxy) picolinamide] | 500 to 1000
O=C(NC1CCN(Cc2ccc3ccccc3c2)CC1)c1ccc(OC2CCN(c3ccc(C(F)(F)F)cc3)CC2)cn1 [Compound 1-37, N-(1-(naphthalen-2-ylmethyl)piperidin-4-yl)-5-(1-(4-(trifluoromethyl)phenyl)piperidin-4-yloxy)picolinamide] | 500 to 1000
O=C(NC1CCN(Cc2ccccc2)CC1)c1ccc(OC2CCN(c3ccc(C(F)(F)F)cc3)CC2)cn1 [Compound 1-38, N-(1-benzylpiperidin-4-yl)-5-(1-(4-(trifluoromethyl)phenyl)piperidin-4-yloxy)picolinamide] | 1000 to 5000
CN(C)c1ccc(CN2CCC(NC(=O)c3ccc(OC4CCN(c5ccc(C(F)(F)F)cc5)CC4)cn3)CC2)cc1 [Compound 1-39, N-(1-(4-(dimethylamino)benzyl)piperidin-4-yl)-5-(1-(4-(trifluoromethyl)phenyl)piperidin-4-yloxy)picolinamide] | 100 to 500
N#Cc1ccc(CN2CC(NC(=O)c3ccc(OC4CCN(c5ccc(C(F)(F)F)cc5)CC4)cn3)C2)cc1 [Compound 1-41, N-(1-(4-cyanobenzyl)azetidin-3-yl)-5-(1-(4-(trifluoromethyl)phenyl)piperidin-4-yloxy)picolinamide] | 100 to 500
O=C(NC1CN(Cc2ccncc2)C1)c1ccc(OC2CCN(c3ccc(C(F)(F)F)cc3)CC2)cn1 [Compound 1-42, N-(1-(pyridin-4-ylmethyl)azetidin-3-yl)-5-(1-(4-(trifluoromethyl)phenyl)piperidin-4-yloxy)picolinamide] | 1000 to 5000
O=C(NC1CCN(Cc2cncnc2)CC1)c1ccc(OC2CCN(c3ccc(C(F)(F)F)cc3)CC2)cn1 [Compound 1-44, N-(1-(pyrimidin-5-ylmethyl)piperidin-4-yl)-5-(1-(4-(trifluoromethyl)phenyl)piperidin-4-yloxy)picolinamide] | 100 to 500
O=C(O)c1ccc(CN2CCC(NC(=O)c3ccc(OC4CCN(c5ccc(C(F)(F)F)cc5)CC4)nc3)CC2)cc1 [Compound 1-46, 4-((4-(6-(1-(4-(trifluoromethyl)phenyl)piperidin-4-yloxy)nicotinamido)piperidin-1-yl)methyl) benzoic acid] | 1000 to 5000
O=C(NC1CCN(Cc2c[nH]cn2)CC1)c1ccc(OC2CCN(c3ccc(C(F)(F)F)cc3)CC2)cn1 [Compound 1-48, N-(1-((1H-imidazol-4-yl)methyl)piperidin-4-yl)-5-(1-(4-(trifluoromethyl)phenyl)piperidin-4-yloxy)picolinamide] | 1000 to 5000
CC(C)(C)OC(=O)NCCCNC(=O)c1ccc(OC2CCN(c3ccc(C(F)(F)F)cc3)CC2)cn1 [Compound 1-49, tert-butyl 3-(5-(1-(4-(trifluoromethyl)phenyl)piperidin-4-yloxy)picolinamido) propylcarbamate] | < 100
O=C(NCCCNCc1ccncc1)c1ccc(OC2CCN(c3ccc(C(F)(F)F)cc3)CC2)cn1 [Compound 1-50, N-(3-(pyridin-4-ylmethylamino)propyl)-5-(1-(4-(trifluoromethyl)phenyl)piperidin-4-yloxy)picolinamide] | 1000 to 5000

Continued, values first:

EC50 [nM] | SMILES
< 100 | N#Cc1ccc(CN2CC[C@H](NC(=O)c3ccc(OC4CCN(c5ccc(C(F)(F)F)cc5)CC4)cn3)C2)cc1 [Compound 1-31, (S)-N-(1-(4-cyanobenzyl)pyrrolidin-3-yl)-5-(1-(4-(trifluoromethyl)phenyl)piperidin-4-yloxy) picolinamide]
500 to 1000 | N#Cc1ccc(CN2CC[C@@H](NC(=O)c3ccc(OC4CCN(c5ccc(C(F)(F)F)cc5)CC4)cn3)C2)cc1 [Compound 1-33, (R)-N-(1-(4-cyanobenzyl)pyrrolidin-3-yl)-5-(1-(4-(trifluoromethyl)phenyl)piperidin-4-yloxy) picolinamide]
< 100 | O=C(NC1CCN(Cc2ccc(N3CCOCC3)cc2)CC1)c1ccc(OC2CCN(c3ccc(C(F)(F)F)cc3)CC2)cn1 [Compound 1-40, N-(1-(4-morpholinobenzyl)piperidin-4-yl)-5-(1-(4-(trifluoromethyl)phenyl)piperidin-4-yloxy)picolinamide]
1000 to 5000 | O=C(NC1CCN(Cc2ccncc2)CC1)c1cccc(OC2CCN(c3ccc(C(F)(F)F)cc3)CC2)n1 [Compound 1-43, N-(1-(pyridin-4-ylmethyl)piperidin-4-yl)-6-(1-(4-(trifluoromethyl)phenyl)piperidin-4-yloxy)picolinamide]
> 10000 | COC(=O)c1ccc(CN2CCC(NC(=O)c3ccc(OC4CCN(c5ccc(C(F)(F)F)cc5)CC4)nc3)CC2)cc1 [Compound 1-45, methyl 4-((4-(6-(1-(4-(trifluoromethyl)phenyl)piperidin-4-yloxy)nicotinamido)piperidin-1-yl)methyl)benzoate]
1000 to 5000 | O=C(NC1CCN(Cc2cn(C(c3ccccc3)(c3ccccc3)c3ccccc3)cn2)CC1)c1ccc(OC2CCN(c3ccc(C(F)(F)F)cc3)CC2)cn1 [Compound 1-47, 5-(1-(4-(trifluoromethyl)phenyl)piperidin-4-yloxy)-N-(1-((1-trityl-1H-imidazol-4-yl)methyl)piperidin-4-yl)picolinamide]
100 to 500 | O=S(=O)(NC1CCN(Cc2ccncc2)CC1)c1ccc(OC2CCN(c3ccc(C(F)(F)F)cc3)CC2)nc1 [Compound 1-51, N-(1-(pyridin-4-ylmethyl)piperidin-4-yl)-6-(1-(4-(trifluoromethyl)phenyl)piperidin-4-yloxy)pyridine-3-sulfonamide]
